Reference: US4622430A (priority 1982, dated 1986)
Like-named read-outs stand apart in the source and are kept apart here.

Columns and labels:
[1] = Irwin dose-range study/acute toxicity in the mouse; design: species or system Male CD-1 mice; details: in vivo; for selectivity ratio: LD50 acute oral toxicity / ED50 reserpine catalepsy, read-out: Therapeutic index (LD50/ED50); for LD50 at 168 h: oral, 7 days observation, method of Horn
Source text: Irwin Dose-Range Study/Acute Toxicity in the Mouse
The animals were also observed daily for seven days post-dose and any mortalities noted. LD50 values were estimated using the method of Horn (Biometrics, 12, 311 (1956)).

[2] = tested on: reserpine-induced catalepsy; assay: Antagonism of reserpine-induced catalepsy in the mouse; format: in vivo, Male CD-1 mice; details: 0.75 h, read-out: ED50 (dose causing a reduction of the catalepsy score to 50% of the control group score), oral, reserpine 5 mg/kg i.p. 4 h before, scored 45 min after compound
[3] = tested on: oxotremorine-induced tremor and salivation; assay: Anti-oxotremorine test in the mouse; details: 0-3 scale; for Mean tremor score (± s.e.): vehicle 2,6-2,9; for Mean salivation score (± s.e.): vehicle 2,7-2,9
[4] = tested on: CVS strain of rabies virus; format: in vivo, in Swiss-Webster mice
[5] = 10 mg/kg oral, 10 min post-oxotremorine
[6] = 100 mg/kg oral, 30 min post-oxotremorine

NC1C2C3CC4C5CC(C1C53)C42 (stereo not shown) [Compound 11, 4-amino-(D3)-trishomocubane]
selectivity ratio [1]: 7.2 | LD50 at 168 h [1]: 1000 mg/kg | ED50 [2]: 139 mg/kg

CC12C3CC4C5CC(C(C53)C1NCc1ccccc1)C42 (stereo not shown) [Compound 16, 4-Benzylamino-3-methyl-(D3)-trishomocubane]
Mean tremor score (± s.e.) [3, 5]: 1,4 ± 0,2 | Mean salivation score (± s.e.) [3, 5]: 1,3 ± 0,2 | selectivity ratio [1]: > 14.5 | LD50 at 168 h [1]: > 1000 mg/kg | ED50 [2]: 69.1 mg/kg

CC12C3CC4C5CC(C(C53)C1NCCc1ccccc1)C42 (stereo not drawn) [Compound 17, 4-(β-phenyl)ethylamino-3-methyl-(D3)-trishomocubane]
Mean tremor score (± s.e.) [3, 6]: 1,4 ± 0,2 | Mean salivation score (± s.e.) [3, 6]: 1,0 ± 0,3

NC1C2C3CC4C5CC(C42)C1(c1ccccc1)C53 (stereo not shown) [Compound 19, 4-amino-3-phenyl-(D3)-trishomocubane]
Mean salivation score (± s.e.) ([3]; 30 mg/kg oral, 20 min post-oxotremorine): 1,0 ± 0,2 | Survival parameter (sum of days survived by six mice, up to 14 days each) ([4]; i.p. 10 mg/kg, 24 hours post inoculation, control 53 (compound 14), 59 (compound 19)): 66 | Survival parameter (sum of days survived by six mice, up to 14 days each) ([4]; i.p. 10 mg/kg, 96 hours post inoculation, control 52 (compound 14), 61 (compound 19)): 77 | Survival parameter (sum of days survived by six mice, up to 14 days each) ([4]; i.p. 21,5 mg/kg, 24 hours post inoculation, control 53 (compound 14), 59 (compound 19)): 65 | Survival parameter (sum of days survived by six mice, up to 14 days each) ([4]; i.p. 21,5 mg/kg, 96 hours post inoculation, control 52 (compound 14), 61 (compound 19)): 71 | Survival parameter (sum of days survived by six mice, up to 14 days each) ([4]; i.p. 46,4 mg/kg, 24 hours post inoculation, control 53 (compound 14), 59 (compound 19)): 66 | Survival parameter (sum of days survived by six mice, up to 14 days each) ([4]; i.p. 46,4 mg/kg, 96 hours post inoculation, control 52 (compound 14), 61 (compound 19)): 68 | selectivity ratio [1]: 25.6 | LD50 at 168 h [1]: 825 mg/kg | ED50 [2]: 32.2 mg/kg

CNC1C2C3CC4C5CC(C42)C1(C)C53 (stereo not shown) [Compound 23, 3-methyl-4-methylamino-(D3)-trishomocubane]
Mean salivation score (± s.e.) ([3]; 30 mg/kg oral, 30 min post-oxotremorine): 0,8 ± 0,2 | Mean tremor score (± s.e.) ([3]; 100 mg/kg oral, 10 min post-oxotremorine): 1,2 ± 0,2
